2 substances from patent publication US8921314B2, “Conjugates of GLP-1 agonists and uses thereof” (Angiochem, Inc., priority 2008, dated 2014) can be followed below.

“Also recorded” adds a separate entry of the source.

One series relates to mouse brain. The conditions noted are these: in vivo.
A further series deals with ob/ob mice. The experiment in a line: treatment of obese (ob/ob) mice with exendin-4/Angiopep-2 conjugate. As to conditions: Q1D, higher doses (exendin-4 30 μg/kg, Exen-An2 48 μg/kg), vs control. Type of series: in vivo, mouse. The method, then:
Obese mice (ob/ob mice) were administered the [Lys^39-MHA]exendin-4/Angiopep-2-Cys-NH2 conjugate (Exen-An2).
A 1.6 μg/kg dose of Exen-An2 is equivalent to a 1 μg/kg dose of exendin-4. The body weight of each mouse was measured daily. Food intake was estimated based on the mean values for each group, and glycemia was measured one hour following treatment.

The subject of another series is DIO mice. Description: reduction of glycemia in DIO mice after bolus injection. As to conditions: vs control. Type of series: in vivo, mouse. Here is the method:
We also tested the ability of the exendin-4-Angiopep-2 dimer conjugate to reduce glycemia in DIO mice. Mice were injected with a bolus containing a control, exendin-4, or the exendin-4-Angiopep-2 dimer conjugate.

Method for mouse brain: To measure brain uptake of the exendin-4/Angiopep-2 conjugates, we used an in situ perfusion assay. […] The uptake of labeled exendin-4 and the exendin-4/Angiopep-2 conjugates was measured using the in situ brain perfusion method adapted in our laboratory for the study of drug uptake in the mouse brain (Dagenais et al., J Cereb Blood Flow Metab. 20:381-6, 2000; Cisternino et al., Pharm Res 18, 183-190, 2001). Briefly, the right common carotid artery of mice anesthetized with ketamine/xylazine (140/8 mg/kg i.p.) was exposed and ligated at the level of the bifurcation of the common carotid, rostral to the occipital artery. The common carotid was then catheterized rostrally with polyethylene tubing filled with heparin (25 U/ml) and mounted on a 26-gauge needle. The syringe containing the perfusion fluid ([^125I]-proteins or [^125I]-peptides in Krebs/bicarbonate buffer at pH 7.4, gassed with 95% O2 and 5% CO2) was placed in an infusion pump (Harvard pump PHD 2000; Harvard Apparatus) and connected to the catheter. Prior to the perfusion, the contralateral blood flow contribution was eliminated by severing the heart ventricles. The brain was perfused for 5 min at a flow rate of 1.15 ml/min. After perfusion of radiolabeled molecules, the brain was further perfused for 60 s with Krebs buffer, to wash away excess [^125I]-proteins. […]

exendin-4 [reference compound] returned a brain distribution with mouse brain of 0.2 ml/100 g/2 min. Also, the body weight gain result in the series on ob/ob mice (after 10 days, FIG. 5) is listed as “lower than the control; also recorded: reduce weight gain”. The food intake entry in the series with ob/ob mice (FIG. 6) is “reduced; also recorded: reduce food intake”. The glycemia result in the series with DIO mice is listed as “reduced glycemia”.
In the series on mouse brain, “[Lys^39-MHA]exendin-4/Angiopep-2-Cys-NH2 [Exen-An2]” returned a brain distribution of 10 ml/100 g/2 min.
